In ChEMBL document CHEMBL5257022, “An integrated overview on pyrrolizines as potential anti-inflammatory, analgesic and antipyretic agents” (Eur J Med Chem, 2016):
One block for each molecule: values may come before it.

Experiments:
[1] = molecular target: T1, Prostaglandin G/H synthase 1 (Ovis aries) (UniProt P05979); test: Inhibition of COX1 in ovine thrombocyte at 10 uM relative to control
T1 sequence (whole entry): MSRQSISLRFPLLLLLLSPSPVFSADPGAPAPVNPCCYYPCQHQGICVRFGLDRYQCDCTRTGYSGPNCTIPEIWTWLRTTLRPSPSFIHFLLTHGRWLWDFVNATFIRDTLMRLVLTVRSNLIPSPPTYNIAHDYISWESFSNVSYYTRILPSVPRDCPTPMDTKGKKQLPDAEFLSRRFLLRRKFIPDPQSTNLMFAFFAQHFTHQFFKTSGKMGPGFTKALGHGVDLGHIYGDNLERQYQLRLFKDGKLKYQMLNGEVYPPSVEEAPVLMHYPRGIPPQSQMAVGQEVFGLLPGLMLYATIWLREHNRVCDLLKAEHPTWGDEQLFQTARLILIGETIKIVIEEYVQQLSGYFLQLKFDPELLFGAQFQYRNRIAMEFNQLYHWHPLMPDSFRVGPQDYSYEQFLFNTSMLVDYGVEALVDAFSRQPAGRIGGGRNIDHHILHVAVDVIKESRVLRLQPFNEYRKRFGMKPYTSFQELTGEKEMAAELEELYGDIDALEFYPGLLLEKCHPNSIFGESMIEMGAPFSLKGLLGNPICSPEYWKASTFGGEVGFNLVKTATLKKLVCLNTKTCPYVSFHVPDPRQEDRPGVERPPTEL

[2] = test system: Rattus norvegicus; test: Antiinflammatory activity in rat assessed as fold change in inhibition of paw edema relative to phenylbutazone; assay type: functional
[3] = species: Mus musculus; test: Analgesic activity in mouse assessed as inhibition of acetic acid-induced writhing response relative to aspirin; assay type: functional
[4] = test system: Rattus norvegicus; test: Antiinflammatory activity in rat assessed as inhibition of paw edema; assay type: functional
[5] = molecular target: Prostaglandin G/H synthase 1 (Homo sapiens, UniProt P23219); test: Inhibition of COX1 (unknown origin)
[6] = molecular target: T2, Prostaglandin G/H synthase 2 (Homo sapiens, UniProt P35354); test: Inhibition of COX2 (unknown origin)
T2 sequence (P35354 whole entry): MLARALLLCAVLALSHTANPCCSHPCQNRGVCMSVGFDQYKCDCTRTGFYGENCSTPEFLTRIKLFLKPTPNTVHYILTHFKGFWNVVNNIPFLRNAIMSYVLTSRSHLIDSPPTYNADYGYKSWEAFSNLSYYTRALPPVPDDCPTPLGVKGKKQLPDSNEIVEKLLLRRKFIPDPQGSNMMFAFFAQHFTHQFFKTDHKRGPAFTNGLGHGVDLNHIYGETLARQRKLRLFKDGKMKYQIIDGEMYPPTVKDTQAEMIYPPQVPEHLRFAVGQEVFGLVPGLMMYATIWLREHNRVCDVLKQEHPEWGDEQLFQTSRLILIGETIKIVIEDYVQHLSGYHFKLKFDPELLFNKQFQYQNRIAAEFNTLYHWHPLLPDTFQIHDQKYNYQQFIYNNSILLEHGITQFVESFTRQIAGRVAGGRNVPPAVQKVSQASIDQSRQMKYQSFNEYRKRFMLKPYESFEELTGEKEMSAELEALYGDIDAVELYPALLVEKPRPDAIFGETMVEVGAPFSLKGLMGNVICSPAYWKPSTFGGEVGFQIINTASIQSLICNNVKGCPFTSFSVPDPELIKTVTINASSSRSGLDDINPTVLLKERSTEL

[7] = molecular target: T3, Polyunsaturated fatty acid 5-lipoxygenase (Homo sapiens) (UniProt P09917); test: Inhibition of 5-LOX in human PMNL at 10 uM relative to control; assay type: cell-based
T3 sequence (whole entry): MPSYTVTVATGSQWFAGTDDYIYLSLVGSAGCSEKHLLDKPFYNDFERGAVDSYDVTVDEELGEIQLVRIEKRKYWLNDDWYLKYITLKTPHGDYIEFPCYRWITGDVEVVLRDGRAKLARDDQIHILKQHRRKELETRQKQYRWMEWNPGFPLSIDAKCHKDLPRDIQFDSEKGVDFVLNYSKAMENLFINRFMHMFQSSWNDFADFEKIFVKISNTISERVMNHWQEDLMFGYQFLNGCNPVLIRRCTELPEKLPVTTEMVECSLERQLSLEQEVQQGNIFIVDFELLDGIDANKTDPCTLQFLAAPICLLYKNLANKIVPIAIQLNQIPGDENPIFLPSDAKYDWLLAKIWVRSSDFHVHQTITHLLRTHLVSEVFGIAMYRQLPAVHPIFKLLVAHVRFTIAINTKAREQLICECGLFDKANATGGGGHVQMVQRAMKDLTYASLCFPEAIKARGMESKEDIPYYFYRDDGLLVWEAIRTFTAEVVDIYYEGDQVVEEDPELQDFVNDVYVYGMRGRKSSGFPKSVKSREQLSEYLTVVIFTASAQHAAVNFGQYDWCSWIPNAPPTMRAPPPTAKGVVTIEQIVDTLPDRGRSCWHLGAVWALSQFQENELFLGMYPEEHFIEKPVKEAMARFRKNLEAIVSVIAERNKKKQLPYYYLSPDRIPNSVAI

Chain of Prostaglandin G/H synthase 1 (P23219 whole entry): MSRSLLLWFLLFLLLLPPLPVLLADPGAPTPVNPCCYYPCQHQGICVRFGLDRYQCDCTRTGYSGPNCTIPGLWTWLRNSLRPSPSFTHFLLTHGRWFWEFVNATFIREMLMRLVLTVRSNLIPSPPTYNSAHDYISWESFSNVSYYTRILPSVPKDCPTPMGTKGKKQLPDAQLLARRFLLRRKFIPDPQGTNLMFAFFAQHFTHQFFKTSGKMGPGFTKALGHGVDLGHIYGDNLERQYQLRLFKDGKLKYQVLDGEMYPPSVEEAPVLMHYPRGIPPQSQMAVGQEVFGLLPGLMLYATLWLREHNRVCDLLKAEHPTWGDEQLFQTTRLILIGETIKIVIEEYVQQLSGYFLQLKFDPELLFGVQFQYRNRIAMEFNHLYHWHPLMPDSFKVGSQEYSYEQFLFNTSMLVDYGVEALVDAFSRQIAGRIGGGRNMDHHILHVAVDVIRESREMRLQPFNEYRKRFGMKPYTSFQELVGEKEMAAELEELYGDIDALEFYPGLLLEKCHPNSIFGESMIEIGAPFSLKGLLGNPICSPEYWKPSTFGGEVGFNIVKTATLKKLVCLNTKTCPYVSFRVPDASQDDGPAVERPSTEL

- IP [1]: 40%
SMILES: O=C(O)/C=C/c1c(-c2ccc(Sc3ccccc3)cc2)c(-c2ccccc2)c2n1CCC2

- IP [1]: 0%
SMILES: O=C(O)/C=C/c1c(-c2ccc(S(=O)(=O)c3ccccc3)cc2)c(-c2ccccc2)c2n1CCC2

SMILES: CSc1ccc(C(=O)c2ccc3n2CCCCC3C(=O)O)cc1 (stereo unspecified)
- fold change (FC) [2]: <0.2
- fold change (FC) [3]: -6

SMILES: Cc1ccccc1NC(=O)c1c(NC(=O)CN2CCOCC2)c(C#N)c2n1CCC2
- inhibition (INH) [4]: 3.9%

- IC50 [5]: 8200 nM
- IC50 [6]: 8 nM
- IP [7]: 0%
SMILES: CS(=O)(=O)c1ccc(-c2cn3c(c2-c2ccc(Cl)cc2)CCC3)cc1

- IP [1]: 45%
SMILES: O=C(O)/C=C/c1c(-c2ccc(Nc3ccccc3)cc2)c(-c2ccccc2)c2n1CCC2

- IC50 [5]: 700 nM
- IC50 [6]: 5 nM
SMILES: Cc1ccc(-c2c(-c3ccc(S(C)(=O)=O)cc3)cn3c2CCC3)cc1

SMILES: N#Cc1c(NC(=O)CCCl)c(C(=O)Nc2ccccc2Cl)n2c1CCC2
- inhibition (INH) [4]: 18%

SMILES: CC(C)(C)C(=O)c1ccc2n1CCC2C(=O)O (stereo unspecified)
- fold change (FC) [2]: 1
- fold change (FC) [3]: -10

- IC50 [5]: 950 nM
SMILES: Cc1c(-c2ccc(Cl)cc2)c(-c2ccccc2)c2n1CC(C)(C)C2=O

- IC50 [6]: 2100 nM
SMILES: CC1(C)Cn2c(CC(=O)O)c(-c3ccc(Cl)cc3)c(-c3ccccc3)c2C1=O

SMILES: Cc1ccc(C(=O)c2ccc3n2CCCC3C(=O)O)cc1 (stereo unspecified)
- fold change (FC) [2]: <1
- fold change (FC) [3]: <0.5

- IC50 [5]: 30 nM
- IC50 [6]: 900 nM
- IP [7]: 0%
SMILES: CSc1ccc(-c2cn3c(c2-c2ccc(C)cc2)CCC3)cc1

SMILES: O=C(c1ccc(F)cc1)c1ccc2n1CCCCC2C(=O)O (stereo unspecified)
- fold change (FC) [2]: <1
- fold change (FC) [3]: <1.3

SMILES: O=C(c1ccc(F)cc1)c1ccc2n1CCC2C(=O)O (stereo unspecified)
- fold change (FC) [2]: 61
- fold change (FC) [3]: 183

- IC50 [5]: 60 nM
SMILES: CC1(C)Cc2c(-c3ccccc3)c(-c3ccsc3)c(CC(=O)O)n2C1

- IP [1]: 45%
SMILES: O=C(O)/C=C/c1c(-c2ccc(Nc3cccc(C(F)(F)F)c3)cc2)c(-c2ccccc2)c2n1CCC2

- IP [1]: 31%
SMILES: Nc1ccc(-c2c(-c3ccccc3)c3n(c2/C=C/C(=O)O)CCC3)cc1

SMILES: Cc1ccccc1NC(=O)c1c(NC(=O)CCl)c(C#N)c2n1CCC2
- inhibition (INH) [4]: 20.3%

SMILES: O=C(c1ccc(Cl)cc1)c1c(Cl)cc2n1CCC2C(=O)O (stereo unspecified)
- fold change (FC) [2]: 88
- fold change (FC) [3]: 167

SMILES: O=C(c1ccc(Cl)cc1)c1ccc2n1CCCC2C(=O)O (stereo unspecified)
- fold change (FC) [2]: <=0.6
- fold change (FC) [3]: <1

- IC50 [5]: 210 nM
SMILES: CC1(C)Cc2c(-c3ccccc3)c(-c3ccc(Cl)s3)c(CC(=O)O)n2C1

SMILES: O=C(c1ccc2n1CCC2C(=O)O)C1CCC1 (stereo unspecified)
- fold change (FC) [2]: -1.5
- fold change (FC) [3]: 30

- IC50 [5]: 4300 nM
- IC50 [6]: 160 nM
- IP [7]: 0%
SMILES: CS(=O)(=O)c1ccc(-c2cn3c(c2-c2ccc(F)cc2)CCC3)cc1

SMILES: N#Cc1c(NC(=O)CCl)c(C(=O)Nc2ccccc2Cl)n2c1CCC2
- inhibition (INH) [4]: 22.2%

- IC50 [5]: 20 nM
SMILES: CC1(C)Cc2c(-c3ccccc3)c(-c3occ4ccccc34)c(CC(=O)O)n2C1

- IP [1]: 12%
SMILES: O=C(O)/C=C/c1c(-c2ccc([S+]([O-])c3ccccc3)cc2)c(-c2ccccc2)c2n1CCC2 (stereo unspecified)

SMILES: Cc1ccccc1NC(=O)c1c(NC(=O)CCN2CCOCC2)c(C#N)c2n1CCC2
- inhibition (INH) [4]: 3.2%

SMILES: N#Cc1c(NC(=O)CN2CCOCC2)c(C(=O)Nc2ccccc2Cl)n2c1CCC2
- inhibition (INH) [4]: 7.1%

SMILES: Cc1ccccc1NC(=O)c1c(NC(=O)CCCl)c(C#N)c2n1CCC2
- inhibition (INH) [4]: 17.5%

SMILES: N#Cc1c(NC(=O)CCN2CCOCC2)c(C(=O)Nc2ccccc2Cl)n2c1CCC2
- inhibition (INH) [4]: 5.7%

- IP [1]: 35%
SMILES: O=C(O)/C=C/c1c(-c2ccc(-c3ccccc3)cc2)c(-c2ccccc2)c2n1CCC2

SMILES: COc1ccc(C(=O)c2ccc3n2CCC3C(=O)O)cc1 (stereo unspecified) [ANIROLAC]
- fold change (FC) [2]: 83
- fold change (FC) [3]: 117

- IP [1]: 17%
SMILES: O=C(O)/C=C/c1c(-c2ccccc2)c(-c2ccccc2)c2n1CCC2

- IP [1]: 0%
SMILES: O=C(O)/C=C/c1c(-c2ccc(S(=O)(=O)Cc3ccccc3)cc2)c(-c2ccccc2)c2n1CCC2

- IC50 [5]: 130 nM
SMILES: CC1(C)Cc2c(-c3ccccc3)c(-c3ccco3)c(CC(=O)O)n2C1

- IP [1]: 28%
SMILES: O=C(O)/C=C/c1c(-c2ccc(Cc3ccccc3)cc2)c(-c2ccccc2)c2n1CCC2

SMILES: O=C(c1ccccc1)c1ccc2n1CCCCC2C(=O)O (stereo unspecified)
- fold change (FC) [2]: -0.4
- fold change (FC) [3]: -3

SMILES: O=C(c1ccccc1)c1ccc2n1CCCC2C(=O)O (stereo unspecified)
- fold change (FC) [2]: <1
- fold change (FC) [3]: 9

SMILES: CSc1ccc(C(=O)c2ccc3n2CCCC3C(=O)O)cc1 (stereo unspecified)
- fold change (FC) [2]: -1
- fold change (FC) [3]: 3

- IP [1]: 12%
SMILES: O=C(O)/C=C/c1c(-c2ccc(Nc3ccc(Cl)cc3)cc2)c(-c2ccccc2)c2n1CCC2

- IC50 [5]: 1100 nM
- IC50 [6]: 1000 nM
- IP [7]: 0%
SMILES: CSc1ccc(-c2cn3c(c2-c2ccccc2)CCC3)cc1

SMILES: C[S+]([O-])c1ccc(C(=O)c2ccc3n2CCCC3C(=O)O)cc1 (stereo unspecified)
- fold change (FC) [2]: <0.2
- fold change (FC) [3]: -0.5

SMILES: Cc1ccc(C(=O)c2ccc3n2CCC3C(=O)O)cc1 (stereo unspecified)
- fold change (FC) [2]: 39
- fold change (FC) [3]: 165

SMILES: O=C(c1ccccc1)c1ccc2n1CC(C(=O)O)C2 (stereo unspecified)
- fold change (FC) [2]: <1
- fold change (FC) [3]: -4

SMILES: O=C(c1ccc(Cl)cc1)c1ccc2n1CC(C(=O)O)C2 (stereo unspecified)
- fold change (FC) [2]: <0.3
- fold change (FC) [3]: <10

- IC50 [6]: 7500 nM
SMILES: COC1c2c(-c3ccccc3)c(-c3ccc(Cl)cc3)c(C)n2CC1(C)C (stereo unspecified)

SMILES: O=C(c1cccc(Cl)c1)c1ccc2n1CCCC2C(=O)O (stereo unspecified)
- fold change (FC) [2]: 8
- fold change (FC) [3]: -9

- IC50 [5]: 3900 nM
- IP [7]: 0%
SMILES: Clc1ccc(-c2cn3c(c2-c2ccccc2)CCC3)s1

SMILES: CC(=O)Nc1c(C#N)c2n(c1C(=O)Nc1ccccc1Cl)CCC2
- inhibition (INH) [4]: 23.9%

- IP [1]: 0%
SMILES: O=C(O)/C=C/c1c(-c2ccc(O)cc2)c(-c2ccccc2)c2n1CCC2

SMILES: N#Cc1ccc(C(=O)c2ccc3n2CCC3C(=O)O)cc1 (stereo unspecified)
- fold change (FC) [2]: <1
- fold change (FC) [3]: 6

SMILES: O=C(Cc1ccccc1)c1ccc2n1CCC2C(=O)O (stereo unspecified)
- fold change (FC) [2]: 3
- fold change (FC) [3]: 14

SMILES: COc1ccc(C(=O)c2ccc3n2CCCC3C(=O)O)cc1 (stereo unspecified)
- fold change (FC) [2]: <1.6
- fold change (FC) [3]: 1.5

- IC50 [5]: 5500 nM
SMILES: O=C(O)/C=C/c1c(-c2ccc(SCc3ccccc3)cc2)c(-c2ccccc2)c2n1CCC2

SMILES: CC(=O)Nc1c(C#N)c2n(c1C(=O)Nc1ccccc1C)CCC2
- inhibition (INH) [4]: 23.2%

SMILES: O=C(c1ccc(F)cc1)c1ccc2n1CCCC2C(=O)O (stereo unspecified)
- fold change (FC) [2]: <1
- fold change (FC) [3]: <10

SMILES: CS(=O)(=O)c1ccc(C(=O)c2ccc3n2CCCC3C(=O)O)cc1 (stereo unspecified)
- fold change (FC) [2]: 3
- fold change (FC) [3]: <1

- IP [1]: 18%
SMILES: O=C(O)/C=C/c1c(-c2ccc([S+]([O-])Cc3ccccc3)cc2)c(-c2ccccc2)c2n1CCC2 (stereo unspecified)
